Test [1] addresses T1, S1R (Cavia porcellus, UniProt Q60492).
T1 construct: performed using Guinea pig whole brain according to the protocol previously reported; from tissue; host or cells: guinea pig whole brain membrane preparations
Description: S1R radiolabeled binding assay, guinea pig whole brain, [3H]-pentazocine. Here is the method:
Following 1 h incubation at 25° C., the binding assay was terminated by addition of cold buffer. The mixture was then filtered through Whatman GF/B filters and washed with cold buffer. Radioactivity was identified using the liquid scintillation counter.
Receptor binding data were analyzed by nonlinear regression of saturation and competition curves using the GraphPad Prism 7.0 software (GraphPad Software, La Jolla, Calif.).
(§1) Radiolabeled binding assays were conducted using two different species.

In test [2] the target is T2, human S2R (Homo sapiens, UniProt Q5BJF2).
T2 construct: performed using Jurkat cell line Clone E6-1 cells with 0.025 μM; endogenous in cells; host or cells: Jurkat Clone E6-1 cell membranes
Description: Human S2R radiolabeled binding assay, Jurkat Clone E6-1 cell membranes, [3H] DTG. As to conditions: for Ki: human membranes (Compounds 10-76); for S2R % at 1 μM: human membranes. The method, then:
The radiolabeled binding assay of the human S1R and S2R were performed using human jurkat cell membranes according to the protocol previously reported (Ganapathy, et al., 1999, J. Pharmacol. Exp. Ther. 289:251-60).
DTG as radioligand. […] The cells were incubated in RPMI 1640 Medium with 10% FBS, 100 U/ml penicillin and […] streptomycin. After incubation, the cells were suspended in 5 mM potassium phosphate buffer (pH=7.6). The membrane protein concentration was controlled at 5 mg/mL. The collected membrane protein was incubated with ligands in potassium phosphate buffer for 1 hour at room temperature and terminated by adding ice-cold buffer. Then the mixture is filtered with 0.7 μm syringe filter and washed three times. The radioactivity is determined by liquid scintillation spectrometry.
Radiolabeled binding assays were conducted using two different species. Compounds 1-9 were assayed using guinea pig brain membranes for the binding assays. Compounds 10-76 were assayed using human brain membranes for the binding assays.

Test [3] deals with T3, human S1R (Homo sapiens, UniProt Q99720).
T3 construct: experimentally determined in human jurkat cell membranes using 15.0 nM; endogenous in cells; host or cells: human Jurkat cell membranes
Description: Human S1R radiolabeled binding assay, human jurkat cell membranes, [3H]-pentazocine. As to conditions: human membranes (Compounds 10-76). The method, then: The binding process was terminated by addition of cold buffer. Then, the mixture was filtered and washed with cold buffer. Radioactivity was identified using the TopCount NTX liquid scintillation counter (PerkinElmer, Waltham, Mass.).
as §1

Setting [4] is: guinea pig brain membranes (Compounds 1-9), read-out: S1R Ki.

Broadly, the Ki is the dissociation constant of the complex between target and ligand, obtained from inhibition or displacement.

Where two headings read alike, the source gives them in different places. Some results are limits rather than exact numbers.

T1 sequence (Q60492 whole entry): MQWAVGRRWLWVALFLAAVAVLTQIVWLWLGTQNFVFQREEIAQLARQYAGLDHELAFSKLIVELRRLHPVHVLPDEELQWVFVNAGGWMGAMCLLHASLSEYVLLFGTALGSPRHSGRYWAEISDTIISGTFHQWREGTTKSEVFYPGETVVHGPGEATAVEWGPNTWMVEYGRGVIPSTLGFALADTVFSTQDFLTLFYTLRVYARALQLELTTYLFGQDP
T2 sequence (Q5BJF2 whole entry): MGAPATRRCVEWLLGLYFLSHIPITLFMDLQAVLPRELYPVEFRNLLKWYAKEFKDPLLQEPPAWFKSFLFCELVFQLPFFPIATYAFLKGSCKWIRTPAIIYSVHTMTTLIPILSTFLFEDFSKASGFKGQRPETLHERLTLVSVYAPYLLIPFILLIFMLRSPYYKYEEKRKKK
T3 sequence (Q99720 whole entry): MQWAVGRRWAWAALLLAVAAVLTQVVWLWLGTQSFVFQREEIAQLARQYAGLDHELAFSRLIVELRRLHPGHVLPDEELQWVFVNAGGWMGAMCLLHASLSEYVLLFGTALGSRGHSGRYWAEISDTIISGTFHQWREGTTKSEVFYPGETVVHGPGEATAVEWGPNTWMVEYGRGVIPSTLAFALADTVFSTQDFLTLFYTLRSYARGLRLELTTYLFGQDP

As for `CN(Cc1nc(-c2ccc(C(C)(C)C)cc2)n(C)n1)CC1CC1` [Compound 9, 1-(5-(4-(tert-butyl)phenyl)-1-methyl-1H-1,2,4-triazol-3-yl)-N-(cyclopropylmethyl)-N-methylmethanamine], the Ki in test [1] (setting [4]) came out at 0.61 nM.
On the same count and under the same terms, to `Cn1nc(CN2CCOCC2)nc1-c1ccc(C(C)(C)C)cc1` [Compound 2, 4-((5-(4-(tert-butyl)phenyl)-1-methyl-1H-1,2,4-triazol-3-yl)methyl)morpholine] belongs 56 nM.
As to `Cn1nc(CN2CCCC2)nc1-c1ccc(C2(C(F)(F)F)CC2)cc1` [Compound 10, 1-methyl-3-(pyrrolidin-1-ylmethyl)-5-(4-(1-(trifluoromethyl)cyclopropyl)phenyl)-1H-1,2,4-triazole], the inhibition constant Ki in test [2] is above 1000 nM; in test [3], 9.9 nM.
With `CCn1nc(CN2CCCC2)nc1-c1ccc(C(C)(C)C)cc1` [Compound 30, 5-(4-(tert-butyl)phenyl)-1-ethyl-3-(pyrrolidin-1-ylmethyl)-1H-1,2,4-triazole], the Ki in test [2] was 1710 nM; in test [3], 4.8 nM.
The matching figures for `Cn1nc(CN2CCCC2)nc1-c1cccc(C2(C(F)(F)F)CC2)c1` [Compound 17, 1-methyl-3-(pyrrolidin-1-ylmethyl)-5-(3-(1-(trifluoromethyl)cyclopropyl)phenyl)-1H-1,2,4-triazole]: above 1000 nM and 32.3 nM.
For the compound `CC(C)(C)c1ccc(-c2nc(CN3CCC4(CCCC4)C3)nn2C2CC2)cc1` [Compound 75, 2-((5-(4-(tert-butyl)phenyl)-1-cyclopropyl-1H-1,2,4-triazol-3-yl)methyl)-2-azaspiro[4.4]nonane], in test [2], the “S2R % at 1 μM” value stood at 105% at 1 μM. The same compound displayed an inhibitory constant (Ki) in test [3] of 0.56 nM.
For `Cn1nc(CN2CCC(Cc3ccccc3)CC2)nc1-c1ccc(C(C)(C)C)cc1` [Compound 7, 4-benzyl-1-((5-(4-(tert-butyl)phenyl)-1-methyl-1H-1,2,4-triazol-3-yl)methyl)piperidine], the Ki in test [1] (setting [4]) is 2.02 nM.
As to `CCn1nc(CN2CC3CCCC3C2)nc1-c1ccc(C(C)(C)C)cc1` (stereo not shown) [Compound 66, 2-((5-(4-(tert-butyl)pheny)-1-ethyl-1H-1,2,4-triazol-3-yl)methyl)octahydrocyclopenta[c]pyrrole], in test [2], the “S2R % at 1 μM” value was determined as 73% at 1 μM. This compound yielded a Ki in test [3] of 0.57 nM.
Turning to `Cn1nc(CN2CCCC2)nc1-c1ccc2c(c1)CCCC2` [Compound 15, 1-methyl-3-(pyrrolidin-1-ylmethyl)-5-(5,6,7,8-tetrahydronaphthalen-2-yl)-1H-1,2,4-triazole], the figures for the inhibition constant (Ki) in test [2] and in test [3] were above 1000 nM and 35.7 nM, respectively.
For `Cn1nc(CN2CCN(CCc3ccccc3)CC2)nc1-c1ccc(C(C)(C)C)cc1` [Compound 5, 1-((5-(4-(tert-butyl)phenyl)-1-methyl-1H-1,2,4-triazol-3-yl)methyl)-4-phenethylpiperazine], in test [1], the affinity, expressed as Ki, was 10.2 nM.
Consider `Cc1cc(-c2nc(CN3CCCC3)nn2C)ccc1C(F)(F)F` [Compound 13, 1-methyl-5-(3-methyl-4-(trifluoromethyl)phenyl)-3-(pyrrolidin-1-ylmethyl)-1H-1,2,4-triazole], for which the values for the Ki in test [2] and in test [3] were above 1000 nM and 20.8 nM, respectively.
With `CCn1nc(CN2CCC3(CCCC3)C2)nc1-c1ccc(C(C)(C)C)cc1` [Compound 65, 2-((5-(4-(tert-butyl)phenyl)-1-ethyl-1H-1,2,4-triazol-3-yl)methyl)-2-azaspiro[4.4]nonane], in test [2], the “S2R % at 1 μM” value turned out to be 96% at 1 μM. Further, the Ki in test [3] worked out at 0.52 nM.
`Cn1nc(CN2CCN(Cc3ccccc3)CC2)nc1-c1ccc(C(C)(C)C)cc1` [Compound 6, 1-benzyl-4-((5-(4-(tert-butyl)phenyl)-1-methyl-1H-1,2,4-triazol-3-yl)methyl)piperazine]: the Ki in test [1] (setting [4]) came to 5.52 nM.
Regarding `CC(C)n1nc(CN2CCCC2)nc1-c1ccc(C(C)(C)C)cc1` [Compound 31, 5-(4-(tert-butyl)phenyl)-1-isopropyl-3-(pyrrolidin-1-ylmethyl)-1H-1,2,4-triazole], the results for the Ki in test [2] and in test [3] were 1460 nM and 2.16 nM, respectively.
Regarding `CN1CCN(Cc2nc(-c3ccc(C(C)(C)C)cc3)n(C)n2)CC1` [Compound 3, 1-((5-(4-(tert-butyl)phenyl)-1-methyl-1H-1,2,4-triazol-3-yl)methyl)-4-methylpiperazine], the Ki in test [1] (setting [4]) worked out at 131 nM.
Turning to `Cn1nc(CN2CCCCC2)nc1-c1ccc(C(C)(C)C)cc1` [Compound 1, 1-((5-(4-(tert-butyl)phenyl)-1-methyl-1H-1,2,4-triazol-3-yl)methyl)piperidine], the inhibitory constant (Ki) in test [1] (setting [4]) is 3.72 nM.
For `Cn1nc(CN2CCC(C)(C)C2)nc1-c1ccc(C(C)(C)C)cc1` [Compound 26, 5-(4-(tert-butyl)phenyl)-3-((3,3-dimethylpyrrolidin-1-yl)methyl)-1-methyl-1H-1,2,4-triazole], the inhibition constant Ki was determined as 190 nM in test [2] and 0.89 nM in test [3].
The matching figures for `Cn1nc(CN2CCCC2)nc1-c1ccc2cc(Cl)sc2c1` [Compound 25, 5-(2-chlorobenzo[b]thiophen-6-yl)-1-methyl-3-(pyrrolidin-1-ylmethyl)-1H-1,2,4-triazole]: above 1000 nM and 37 nM.
The compound `Cn1nc(CN2CCN(c3ccccc3)CC2)nc1-c1ccc(C(C)(C)C)cc1` [Compound 4, 1-((5-(4-(tert-butyl)phenyl)-1-methyl-1H-1,2,4-triazol-3-yl)methyl)-4-phenylpiperazine] yielded an inhibition constant (Ki) in test [1] of 14.3 nM.
`CC(C)(C)c1ccc(-c2nc(CN3CCCC3)nn2C2CC2)cc1` [Compound 32, 5-(4-(tert-butyl)phenyl)-1-cyclopropyl-3-(pyrrolidin-1-ylmethyl)-1H-1,2,4-triazole]: the inhibitory constant (Ki) in test [2] was 750 nM; in test [3], 13.9 nM.
Regarding `Cn1nc(CN2CCCC2)nc1-c1ccc(Cl)c(Cl)c1` [Compound 11, 5-(3,4-dichlorophenyl)-1-methyl-3-(pyrrolidin-1-ylmethyl)-1H-1,2,4-triazole], the Ki in test [2] is above 1000 nM; in test [3], 22.1 nM.

(Values after patent US20220363649A1, “ORGANIC COMPOUNDS” (Rutgers, The State University of New Jersey, priority 2018, published 2022).)
